This experiment concerns 521955-158-R2-J5-PDC complex spheroids, viability. The experiment can be described thus: Anticancer human tumor 521955-158-R2-J5-PDC patient-derived pancreatic carcinoma cell line growth inhibition [RAS]. The note with it: for viability, T/C: stronger effect = lower value. An excerpt:
RAS pathway inhibitors in Combinations in Complex Spheroids
A high-throughput screen of multi-cell type tumor spheroids was designed to identify active combinations of RAS pathway inhibitors and targeted small molecules. Complex spheroids include a stromal component modeled by human endothelial cells (HUVEC) and fibroblasts modeled by human mesenchymal stem cells (MSCs). The concentration ranges selected for each drug and investigational agent were based upon clinically achievable concentrations if the clinical Cmax of the agent was known.
Compounds. The drugs and investigational agents: abemaciclib (NSC768073), cobimetinib (NSC768068), divarasib (GDC6063, NSC841802), docetaxel (NSC628503), GDC-1971 (RLY-1971, NSC841576), gemcitabine (NSC613327), inavolisib (NSC800729), ipatasertib (NSC767898), KB-0742 (NSC834161), MRTX-1133 (NSC836407), osimertinib (NSC779217), RMC-4630 (NSC839698), RMC-6236 (NSC851965), RMC-6291 (NSC852671), Ro-3306 (NSC812927), sapanisertib (NSC764658), SN-38 (NSC673596), staurosporine (NSC755774), SY5609 (NSC837396), and tovorafenib (DAY101, NSC766906), were obtained from the National Cancer Institute (NCI) Developmental Therapeutics Program Chemical Repository. The FDA-approved anticancer drug set is available from the NCI Developmental Therapeutics Program. […] The stock solutions were prepared in dimethyl sulfoxide (DMSO, Sigma-Aldrich, St. Louis, MO, cat. D2650) at 800-fold the tested concentration and stored at -70 degrees C prior to their use. All drugs and investigational agents were tested over a range starting from a high concentration at or near the clinical Cmax and decreasing in half-log increments. If the clinical Cmax for an agent had not been determined, the highest concentration tested was 10 microM.
Cell Culture. All cells were maintained in an incubator at 37 degrees C and 5% CO2 with 95% humidity. The PDC lines were cultured according to standard operating procedures established by the NCI PDMR. All PDCs were thawed and cultured in Matrigel-coated flasks prepared with a working solution of 1X Ham's F-12 nutrient mix, without supplementation (Invitrogen, Waltham, MA, cat. 11765054), 100 U/mL penicillin-streptomycin (Invitrogen, cat. 15140122), and 2.5% Matrigel (Corning Inc., Corning, NY, cat. 354248) for the first three passages. The 362531-283-R-J2-PDC and 782815-120-R-J1-PDC lines were cultured in 6C/Colon 1B media, which includes advanced DMEM/F-12 (Thermo Fisher Scientific, cat. 12634028), 10 mM HEPES (Thermo Fisher Scientific, cat. 15630080), 1X GlutaMAX supplement (Thermo Fisher Scientific, cat. 35050061), 0.1 mg/mL primocin (InvivoGen, San Diego, CA, cat. ant-pm-2), 10% defined fetal bovine serum, heat inactivated (HyClone Laboratories Inc., Logan, UT, cat. SH30070.03HI), 50% L-WRN conditioned media (ATCC, cat. CRL-3276), 1.25 mM N-Acetyl-L-cysteine (Sigma-Aldrich, cat. A9165), 10 mM nicotinamide (Sigma-Aldrich, cat. N0636), 1X B-27 supplement (Thermo Fisher Scientific, cat. 17504044), 1X N-2 supplement (Thermo Fisher Scientific, cat. 17502048), 50 ng/mL human EGF (Thermo Fisher Scientific, cat. PHG0311), and 10 microM Y-27632 dihydrochloride (Tocris Bioscience, cat. 1254). The K12877-001-R-J1-PDC line was cultured in 6I media, which includes all 6C/Colon 1B media plus 10 ng/mL human FGF-10 (PeproTech, cat. 100-26), 1 ng/mL human FGF-2 (PeproTech, cat. 100-18B), 1 µM prostaglandin E2 (Tocris Bioscience, cat. 2296), […] hydrocortisone (Sigma-Aldrich, cat. H4001), and […] bovine insulin (Sigma-Aldrich, cat. I6634). The K86415-001-R-J1-PDC line was cultured in 6D media, which includes all 6C/Colon 1B media components minus the L-WRN conditioned media. The 485176-168-R4-J1-PDC was cultured in PANC media, which includes all 6C/Colon 1B media plus 100 ng/mL human FGF-10 (PeproTech, cat. 100-26), 500 nM SB-431542 (Selleckchem, cat. S1067), and 10 nM gastrin (Tocris Bioscience, cat. 3006). […]

The mark [1] stands for this setting: compound alone, run of 05/20/2024.

Each structure is given as a SMILES string. Where “and” joins values, the source holds several entries; their conditions need not be identical. Identical values can stand only once. Bounds are passed on as bounds.
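Note: compound exposure lasted seven days before the viability read.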
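Throughout, for viability, T/C: spheroids also contain HUVEC endothelial cells and mesenchymal stem cells as stroma.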

Regarding `C#Cc1c(F)ccc2cc(O)cc(-c3ncc4c(N5CC6CCC(C5)N6)nc(OCC56CCCN5CC(F)C6)nc4c3F)c12` (stereo unspecified), the viability, T/C (commonly the ratio of treated to control) (compound 0.0316 µM) is 64.5% [middle of 8 runs]; the viability, T/C (compound 0.1 µM) was 57.3% [middle of 8 runs]; the viability, T/C (compound 0.316 µM) is 53.9% [middle of 8 runs]; the viability, T/C (compound 1 µM) was 51.1% [middle of 8 runs]; the viability, T/C (compound 3.16 µM) was 45.4% [middle of 8 runs]; the viability, T/C (compound 10 µM) was 35.1% [middle of 8 runs].

As for `C=CC(=O)Nc1cc(Nc2nccc(-c3cn(C)c4ccccc34)n2)c(OC)cc1N(C)CCN(C)C`, the viability, T/C reads like this: (compound 0.00316 µM) 101% [middle of 4 runs]; (compound 0.0316 µM) 94.7% [middle of 4 runs]; (compound 0.1 µM) 79.1% [middle of 4 runs]. Moreover, under “curve of compound”, the concentration for half-maximal inhibition (IC50) (usually the concentration that inhibits the measured activity by half) was 965 nM and 466 nM and > 1000 nM.

`CC(C)NCC(C(=O)N1CCN(c2ncnc3c2C(C)CC3O)CC1)c1ccc(Cl)cc1` (stereo unspecified): the viability, T/C runs as follows: (compound 0.0316 µM) 97.9% [middle of 4 runs]; (compound 0.1 µM) 99.3% [middle of 4 runs]; (compound 0.316 µM) 96% [middle of 4 runs]; (compound 1 µM) 60.5% [middle of 4 runs]; (compound 3.16 µM) 75.7% [middle of 4 runs]; (compound 10 µM) 72.5% [middle of 4 runs]. The IC50 (curve of compound) is over 10000 nM.

Take `CC(C)n1nc(-c2ccc3oc(N)nc3c2)c2c(N)ncnc21`: the viability, T/C (compound 0.000316 µM) was 94.1% [middle of 4 runs]; the viability, T/C (compound 0.001 µM) was 101% [middle of 4 runs]; the viability, T/C (compound 0.00316 µM) was 96.2% [middle of 4 runs]; the viability, T/C (compound 0.01 µM) is 65.3% [middle of 4 runs]; the viability, T/C (compound 0.0316 µM) was 44.3% [middle of 4 runs]; the viability, T/C (compound 0.1 µM) was 37% [middle of 4 runs]. Also, the IC50 (curve of compound) is 21.3 nM [middle of 4 runs].

As for `CC1(C)CCC(Nc2ncc(C(F)(F)F)c(-c3c[nH]c4c(P(C)(C)=O)c(C#N)ccc34)n2)CN1` (stereo unspecified), the viability, T/C reads like this: (compound 0.000949 µM) 104% [middle of 4 runs]; (compound 0.003 µM) 74.5% [middle of 4 runs]; (compound 0.00949 µM) 57.2% [middle of 4 runs]; (compound 0.03 µM) 48.7% [middle of 4 runs]; (compound 0.0949 µM) 52.8% [middle of 4 runs].

Turning to `CC1(O)CCCC1n1c(=O)c(C(F)F)cc2cnc(NC3CCN(S(C)(=O)=O)CC3)nc21` (stereo unspecified), the viability, T/C (compound 0.0316 µM) is 92.5% [middle of 4 runs]; the viability, T/C (compound 0.1 µM) is 76.6% [middle of 4 runs]; the viability, T/C (compound 1 µM) was 75.7% [middle of 4 runs]; the viability, T/C (compound 3.16 µM) is 118% [middle of 4 runs]; the viability, T/C (compound 10 µM) was 14.9% [middle of 4 runs]. In addition, the concentration for half-maximal inhibition (IC50) (curve of compound) was 5.85 µM [middle of 4 runs].

For the compound `CCC(CC)c1cc(NC2CCC(N)C2)n2nccc2n1` (stereo unspecified), the viability, T/C runs as follows: (compound 0.0316 µM) 110% [middle of 4 runs]; (compound 0.1 µM) 91.2% [middle of 4 runs]; (compound 0.316 µM) 122% [middle of 4 runs]; (compound 1 µM) 111% [middle of 4 runs]; (compound 3.16 µM) 9.87% [middle of 4 runs]; (compound 10 µM) 10.2% [middle of 4 runs]. Where the note is “curve of compound”, the IC50 is 1.97 µM [middle of 4 runs].

Consider `CCN1CCN(Cc2ccc(Nc3ncc(F)c(-c4cc(F)c5nc(C)n(C(C)C)c5c4)n3)nc2)CC1`, for which the viability, T/C by setting is: (compound 0.00316 µM) 102% [middle of 4 runs]; (compound 0.0316 µM) 87% [middle of 4 runs]; (compound 0.1 µM) 81.5% [middle of 4 runs]. Besides, the IC50 (curve of compound) was over 1000 nM.

`CCc1c2c(nc3ccc(O)cc13)-c1cc3c(c(=O)n1C2)COC(=O)[C@]3(O)CC`: the viability, T/C is 82.5% [middle of 4 runs] (compound 0.000949 µM); 44.6% [middle of 4 runs] (compound 0.003 µM); 19.9% [middle of 4 runs] (compound 0.00949 µM); 10.1% [middle of 4 runs] (compound 0.03 µM); 6.59% [middle of 4 runs] (compound 0.0949 µM); 6.5% [middle of 4 runs] (compound 0.3 µM). For the same compound, the IC50 (curve of compound) was 2.64 nM [middle of 4 runs].

On to `CCn1c(-c2cc(N3CCN(C)CC3)cnc2C(C)OC)c2c3cc(ccc31)-c1csc(n1)CC(NC(=O)C1CC1C)C(=O)N1CCCC(N1)C(=O)OCC(C)(C)C2` (stereo unspecified), for which the viability, T/C was 46.5% [middle of 8 runs] (compound 0.000949 µM); 40.6% [middle of 8 runs] (compound 0.003 µM); 37.5% [middle of 8 runs] (compound 0.00949 µM); 21.3% [middle of 8 runs] (compound 0.03 µM); 12.8% [middle of 8 runs] (compound 0.0949 µM); 10.2% [middle of 8 runs] (compound 0.3 µM). Further, the IC50 under setting [1] is < 0.949 nM and 1.04 nM.

On to `CCn1c(-c2cccnc2C(C)OC)c2c3cc(ccc31)N1CCOC(CC(NC(=O)C(C(C)C)N(C)C(=O)C3(F)CCN(C(=O)C#CC(C)(C)N(C)C)CC3)C(=O)N3CCCC(N3)C(=O)OCC(C)(C)C2)C1` (stereo unspecified), for which the viability, T/C (compound 0.000949 µM) was 101% [middle of 8 runs]; the viability, T/C (compound 0.003 µM) was 101% [middle of 8 runs]; the viability, T/C (compound 0.03 µM) is 94.8% [middle of 8 runs]; the viability, T/C (compound 0.3 µM) is 77.3% [middle of 8 runs]. Under setting [1], the IC50 is over 300 nM.

In the case of `Cc1nc(N2CCC3(CC2)COC(C)C3N)c(CO)nc1Sc1ccnc(N)c1Cl` (stereo unspecified), the viability, T/C was 85.6% [middle of 4 runs] (compound 0.0316 µM); 71.7% [middle of 4 runs] (compound 0.1 µM); 69.2% [middle of 4 runs] (compound 0.316 µM); 67.1% [middle of 4 runs] (compound 1 µM); 67% [middle of 4 runs] (compound 3.16 µM); 57% and 57.9% (2×) and 51.2% (compound 10 µM). Moreover, under “curve of compound”, the IC50 is over 10000 nM.

On to `Nc1ccn(C2OC(CO)C(O)C2(F)F)c(=O)n1` (stereo unspecified), for which the viability, T/C is, setting by setting: (compound 0.00316 µM) 101% [middle of 4 runs]; (compound 0.01 µM) 79% [middle of 4 runs]; (compound 0.0316 µM) 79.1% [middle of 4 runs]; (compound 0.1 µM) 72.9% [middle of 4 runs]; (compound 0.316 µM) 36.5% [middle of 4 runs]; (compound 1 µM) 16.2% [middle of 4 runs]. Besides, under “curve of compound”, the IC50 was 183 nM [middle of 4 runs].

In the case of `O=C(c1ccc(F)c(F)c1Nc1ccc(I)cc1F)N1CC(O)([C@@H]2CCCCN2)C1`, the viability, T/C was 82% [middle of 4 runs] (compound 0.00316 µM); 71% [middle of 4 runs] (compound 0.01 µM); 51.7% [middle of 4 runs] (compound 0.0316 µM); 42.8% [middle of 4 runs] (compound 0.1 µM); 33.9% [middle of 4 runs] (compound 0.316 µM); 23.6% [middle of 4 runs] (compound 1 µM). The IC50 (curve of compound) was 40.1 nM [middle of 4 runs].

Values taken from PubChem BioAssay AID2060900 (Molecular Pharmacology Branch, DTP, NCI, 2025).
